System: sleep apnea patient
Experiment: Oxygen saturation (SpO2) monitoring during sleep with Wellure's O2Ring in a sleep apnea patient
Type: in vivo
Excerpt: FIG. 1 is a diagram showing sleep apnea patient's oxygen saturation levels (SpO2). Oxygen saturation levels (SpO2) in the blood during sleep were monitored using Wellure's O2Ring.
(§1) Oxygen saturation levels (SpO2) in the blood during sleep were monitored using Wellure's O2Ring.
as §1

CN[C@@H](C)[C@H](O)c1ccccc1 [ephedrine]
breathing problems observed in FIG. 1 (FIG. 2, 25 mg ephedrine one hour before bed plus Avinol PM, in the first three hours, came back afterwards): greatly reduced | sleep apnea patient's oxygen saturation levels (SpO2) (FIG. 2, 25 mg of ephedrine one hour before going to bed along with sleeping pill Avinol PM just before going to bed): improved | sleep apnea patient's oxygen saturation levels (SpO2) (FIG. 3, 25 mg ephedrine one hour before bed plus one tablet Avinol PM just before bed, another 25 mg ephedrine three hours after going to bed): improved | breathing problems caused by sleep apnea (general statement, dose not given): reduces
